Laboratory results as given in patent US5463077A, “Perhydroisoindole derivatives and preparation” (Rhone-Poulenc Rorer S.A., priority 1992, dated 1995).

Columns and labels:
Assay type in all cases: in vivo
[1] = test system: bronchospasm induced by [Pro^9 ] substance P; experiment: Inhibition of bronchospasm induced by [Pro9] substance P (Konzett and Rossler); conditions: Cavia porcellus, iv; guinea-pig; bronchospasm induced by 3 μg/kg i.v. of [Pro9] substance P; read-out: ED50, dose which reduces by 50% the bronchospasm
Description: Injection of substance P causes a bronchospasm in the animal. The bronchoconstriction induced in vivo in the guinea-pig by injection of substance P or of a selective agonist of substance P: [Pro^9 ] substance P is studied by the technique of H. Konzett and R. Rosseler, Archiv. Exp. Path. Pharmak., 195, 71-74 (1940). This bronchoconstriction is inhibited by injection of a product of the general formula (IV), which is evidence of an antiasthmatic activity. The ED50, the dose which reduces by 50 % the bronospasm induced by 3 μg/kg i.v. of [Pro^9 ] substance P, is determined. In this technique, the ED50 of the product of Use Example 1 is 0.7 mg/kg i.v.

[2] = test system: increase in capillary permeability caused by septide (agonist of substance P); experiment: Inhibition of the increase in capillary permeability caused by septide (Saria et al., adapted for the guinea-pig); conditions: Cavia porcellus
Description: Study of certain isoindole derivatives of the general formula (IV) by the technique of A. Saria et al., Arch.

[3] = test system: hypotension induced by substance P; experiment: Antagonism of hypotension induced by substance P (Maggi et al.); conditions: Cavia porcellus, iv; guinea-pig; hypotension induced by i.v. injection of 250 ng/kg of substance P; read-out: ED50, dose which reduces by 50% the hypotension
Procedure: Injection of substance P into the animal causes hypotension. The products studied by the technique of C. A. Maggi et al., J. Auton. Pharmac., 7, 11-32 (1987) show an antagonistic effect with respect to this hypotension in the guinea-pig. The ED50, the dose which reduces by 50% the hypotension induced by an i.v. injection of 250 ng/kg of substance P, is determined.

Molecule `COc1ccccc1[C@H](C)C(=O)N1C[C@@H]2[C@H](C1)C(c1ccccc1)(c1ccccc1)CC[C@@]2(O)c1ccccc1OC` [Use Example 1, (3aS,4S,7aS)-7,7-diphenyl-4-(2-methoxyphenyl)-2-[2-(2-methoxyphenyl)-(S)-propionyl]-perhydroisoindol-4-ol] has an ED50 [1] of 0.7 mg/kg, an ED50 ([2]; iv) of 0.04 mg/kg and an ED50 ([2]; po) of 3.5 mg/kg. The ED50 [3] was 0.15 mg/kg.
